Experimental data reported in patent publication US20250289795A1, “METHOD FOR PREPARATION OF COMPOUND POSSESSING 5-PENTYLFURFURAL (5-PF) STRUCTURE AND USE THEREOF” (FUGENBIO CO., LTD., priority 2022, published 2025).

Experiments:
[1] = tested on: AMP-activated protein kinase (AMPK); experiment: AMPK expression in differentiated C2C12 cells; assay type: cell-based; settings: C2C12, positive control 90 μg/mL
Method: In order to confirm the effect of 5-PF-Q on the expression of AMP-activated protein kinase (AMPK), differentiated muscle cell C2C12 cells were treated with 5-PF-Q at 10 μg/mL, 50 μg/mL, and 100 μg/mL for 24 hours, respectively, as shown in FIG. 7 (10% gel, 20 μg PTN, 1° ab pAMPK 1:3,000, tAMPK 1:1,000/2° ab 1:4,000).

[2] = tested on: Ob/Ob mice; experiment: antidiabetic effect in Ob/Ob mice; assay type: in vivo
Method: In order to confirm the antidiabetic effect of 5-PF-Q, the changes, due to the administration of 5-PF-Q, in body weight, food intake, reduction of blood sugar levels, toxicity, and insulin resistance were measured.
The mice were divided into group A (weight 35 g or more) and group B (weight 35 g or less) based on body weight. According to the flowchart below, each group was assigned to a metformin (200 mg/kg) administration group (positive control group) and a 5-PF-Q (15 mg/kg) administration group (experimental group) and administered orally for 3 weeks. After the 3-week administration period, blood sugar levels were measured by performing an oral glucose tolerance test (OGTT), and the mice were sacrificed 3 weeks thereafter. OGTT was also performed at the same time point for the Ob/Ob vehicle group (negative control group) that was not administered with the compound, and non-diabetic C57BL/6 mice, and they were sacrificed.

[3] = tested on: B16F10 cells; settings: cited from earlier work

SMILES | expression of AMPK (pAMPK/tAMPK) [1] | insulin resistance compared to Ob/Ob vehicle group ([2]; Ob/Ob mice, 200 mg/kg) | OGTT blood sugar reduction pattern ([2]; group A (35 g or more), 200 mg/kg oral for 3 weeks) | cytotoxicity [3] | inhibition of melanin production IC50 [3] [µg/mL]
CN(C)C(=N)N=C(N)N [metformin] | clearly observed | tendency to improve insulin resistance | blood sugar reduction pattern was similar | – | –
CCCCCc1ccc(C=O)o1 [5-pentyl-2-furaldehyde] | – | – | – | without cytotoxicity | 8.4
